Test system: post-synaptic Dopamine (D.A.) receptors
Assay: Inhibition of apomorphine induced climbing in the mouse
Assay type: in vivo
Conditions: po, 4 hour post dosing; apomorphine 1 mg/kg subcutaneous; male CD1 mice
Experimental: The results in the following table are an illustration of the anti-psychotic activity of the present compounds as shown by Inhibition of Apormorphine Induced Climbing in the Mouse, a standard test.
Inhibition of apomorphine induced climbing in the mouse
The test is based on that described by Protais, P., Constantin, J. and Schwartz J. C. (1976), Psychopharmacology, 50, 1-6.
When mice are given a dose of 1 mg/kg apomorphine and then placed in an enclosed environment, such as an inverted wire cage, they are seen to climb around the walls. This behavioural phenomenon is thought to be a consequence of the stimulation of post-synaptic Dopamine (D.A.) receptors in the nucleus accumbens. Inhibition of apomorphine induced climbing is therefore indicative of post-synaptic D.A. receptor blockage in the accumbens.
Groups of 10 male CD1 mice, weighing 25-30 g were pre-treated orally with either graded doses of the test compound or vehicle, at appropriate time intervals before the subcutaneous administration of a sub-maximal dose of apomorphine (1 mg/kg). Immediately after the apomorphine injection the mice were placed in wire `climbing cages` and each animal was scored for climbing behaviour at 10 and 20 minutes post apomorphine as follows:
Four paws on cage floor=0
The total score was calculated for each group of mice and expressed as a percentage inhibition of climbing. [formula]
ED50's and fiducial limits were calculated according to the method of Litchfield and Wilcoxon, the ED50 being the dose that produced a 50% inhibition of apomorphine-induced climbing.

Row | SMILES | ED50 (dose that produced a 50% inhibition of apomorphine-induced climbing)
1 | COc1cc(N)c(Cl)cc1C(=O)N[C@@H]1C[C@H]2CCC[C@@H](C1)N2Cc1ccc(C)cc1 [Example 3B, 4-Amino-5-chloro-2-methoxy-N-{3'β[9'-(4-methylbenzyl)-9'-azabicyclo[3.3.1]-nonyl]}-benzamide] | 0.07 mg/kg
2 | COc1cc(N)c(Cl)cc1C(=O)N[C@@H]1C[C@H]2CCC[C@@H](C1)N2Cc1ccc(F)cc1 [Example 1B, 4-Amino-5-chloro-2-methoxy-N-{3'β-[9'-(4-fluorobenzyl)-9'-azabicyclo[3.3.1]-nonyl]}-benzamide] | 0.008 mg/kg
3 | COc1cc(N)c(Cl)cc1C(=O)N[C@@H]1C[C@H]2CCC[C@@H](C1)N2Cc1ccc(Cl)cc1 [Example 2B] | 0.027 mg/kg

Source: US4472413A, “9'-Azabicyclo [3.3.1] nonyl benzamide” (Beecham Group p.l.c., priority 1981, dated 1984)
